Data: ChEMBL document CHEMBL1201862, “PubChem BioAssay data set” (2004)
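Following 48 hours of exposure in 96-well plates, responses at five concentrations were used to interpolate endpoints linearly. GI50: concentration for 50% inhibition of growth.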 The source made the active and inactive calls. Cut-off read from the data, not from the text of the source: active = GI50 up to about 1.1 µM and inactive = higher.

What was measured:
Assay in all cases: NCI tumour cell line growth inhibition, 48 h
[1] = system: SNB-78
[2] = system: OVCAR-5
[3] = system: KM12
[4] = system: DMS-273
[5] = system: UACC-62
[6] = system: MOLT-4
[7] = system: SW-620
[8] = system: A549
[9] = system: SK-OV-3
[10] = system: HOP-18
[11] = system: CCRF-CEM
[12] = system: SK-MEL-2
[13] = system: SF-295
[14] = system: COLO 205
[15] = system: HT-29
[16] = system: SN12C
[17] = system: U-251
[18] = system: A498
[19] = system: CAKI-1
[20] = system: SF-268
[21] = system: HCC 2998
[22] = system: OVCAR-3
[23] = system: TK-10
[24] = system: EKVX
[25] = system: SF-539
[26] = system: SK-MEL-5
[27] = system: NCI-H23
[28] = system: K562
[29] = system: UO-31
[30] = system: M19-MEL
[31] = system: DLD-1
[32] = system: ACHN
[33] = system: LOX IMVI
[34] = system: HL-60
[35] = system: SNB-75
[36] = system: SK-MEL-28
[37] = system: UACC-257
[38] = system: IGROV-1
[39] = system: RPMI-8226
[40] = system: 786-0
[41] = system: KM-20L2
[42] = system: RXF 393
[43] = system: RXF 631
[44] = system: NCI-H460
[45] = system: HOP-62
[46] = system: SNB-19
[47] = system: HCT-15
[48] = system: Malme-3M
[49] = system: OVCAR-8
[50] = system: HOP-92
[51] = system: NCI-H522
[52] = system: DMS-114
[53] = system: NCI-H226
[54] = system: HCT-116
[55] = system: LXFL 529
[56] = system: XF498
[57] = system: OVCAR-4
[58] = system: M14
[59] = system: PC-3
[60] = system: MDA-MB-231
[61] = system: T47D
[62] = system: MDA-N
[63] = system: BT-549
[64] = system: SR
[65] = system: DU-145
[66] = system: MDA-MB-435
[67] = system: Hs-578T

Q: For `Cc1nc(-n2nc(-c3ccccc3)cc2-c2ccccc2)sc1C(=O)/C=C/c1ccccc1`, which GI50 [1] is on record?
A: > 100 µM (inactive)

Q: What about the GI50 [2] of the same molecule?
A: > 100 µM (inactive)

Q: And the GI50 [3]?
A: 84.3 µM (inactive)

Q: What about the GI50 [4] of the same molecule?
A: > 100 µM (inactive)

Q: What about the GI50 [5] of the same molecule?
A: > 100 µM (inactive)

Q: What about the GI50 [6] of the same molecule?
A: 31.8 µM (inactive)

Q: What about the GI50 [7] of the same molecule?
A: 59 µM (inactive)

Q: What about the GI50 [8] of the same molecule?
A: 75.3 µM (inactive)

Q: And the GI50 [9]?
A: > 100 µM (inactive)

Q: And the GI50 [10]?
A: > 100 µM (inactive)

Q: And the GI50 [11]?
A: 72.9 µM (inactive)

Q: And the GI50 [12]?
A: > 100 µM (inactive)

Q: And the GI50 [13]?
A: > 100 µM (inactive)

Q: And the GI50 [14]?
A: > 100 µM (inactive)

Q: What about the GI50 [15] of the same molecule?
A: > 100 µM (inactive)

Q: What about the GI50 [16] of the same molecule?
A: > 100 µM (inactive)

Q: And the GI50 [17]?
A: > 100 µM (inactive)

Q: What about the GI50 [18] of the same molecule?
A: > 100 µM (inactive)

Q: What about the GI50 [19] of the same molecule?
A: 9.79 µM (inactive)

Q: And the GI50 [20]?
A: > 100 µM (inactive)

Q: What about the GI50 [21] of the same molecule?
A: > 100 µM (inactive)

Q: And the GI50 [22]?
A: 81.1 µM (inactive)

Q: What about the GI50 [23] of the same molecule?
A: > 100 µM (inactive)

Q: What about the GI50 [24] of the same molecule?
A: 32.9 µM (inactive)

Q: And the GI50 [25]?
A: > 100 µM (inactive)

Q: And the GI50 [26]?
A: 23.5 µM (inactive)

Q: What about the GI50 [27] of the same molecule?
A: > 100 µM (inactive)

Q: And the GI50 [28]?
A: 49.8 µM (inactive)

Q: What about the GI50 [29] of the same molecule?
A: 17.9 µM (inactive)

Q: And the GI50 [30]?
A: > 100 µM (inactive)

Q: What about the GI50 [31] of the same molecule?
A: > 100 µM (inactive)

Q: What about the GI50 [32] of the same molecule?
A: > 100 µM (inactive)

Q: And the GI50 [33]?
A: > 100 µM (inactive)

Q: And the GI50 [34]?
A: 60.4 µM (inactive)

Q: What about the GI50 [35] of the same molecule?
A: 6.58 µM (inactive)

Q: And the GI50 [36]?
A: > 100 µM (inactive)

Q: What about the GI50 [37] of the same molecule?
A: > 100 µM (inactive)

Q: What about the GI50 [38] of the same molecule?
A: 75.5 µM (inactive)

Q: What about the GI50 [39] of the same molecule?
A: > 100 µM (inactive)

Q: And the GI50 [40]?
A: > 100 µM (inactive)

Q: And the GI50 [41]?
A: > 100 µM (inactive)

Q: And the GI50 [42]?
A: > 100 µM (inactive)

Q: And the GI50 [43]?
A: > 100 µM (inactive)

Q: What about the GI50 [44] of the same molecule?
A: > 100 µM (inactive)

Q: What about the GI50 [45] of the same molecule?
A: > 100 µM (inactive)

Q: And the GI50 [46]?
A: > 100 µM (inactive)

Q: And the GI50 [47]?
A: > 100 µM

Q: What about the GI50 [48] of the same molecule?
A: > 100 µM (inactive)

Q: And the GI50 [49]?
A: > 100 µM (inactive)

Q: And the GI50 [50]?
A: 70.1 µM (inactive)

Q: What about the GI50 [51] of the same molecule?
A: 33.1 µM (inactive)

Q: What does the source list for `C/C(CC(=O)Nc1cccc(Cl)c1C)=N\N=C(N)N`?
A: GI50 [52]: > 100 µM (inactive); GI50 [1]: > 100 µM (inactive); GI50 [2]: > 100 µM (inactive); GI50 [3]: > 100 µM (inactive); GI50 [4]: 97.1 µM (inactive); GI50 [5]: > 100 µM (inactive); GI50 [6]: > 100 µM (inactive); GI50 [8]: > 100 µM (inactive); GI50 [9]: > 100 µM (inactive); GI50 [10]: > 100 µM (inactive); GI50 [11]: > 100 µM (inactive); GI50 [53]: > 100 µM (inactive); GI50 [12]: > 100 µM (inactive); GI50 [13]: > 100 µM (inactive); GI50 [14]: > 100 µM (inactive); GI50 [15]: > 100 µM (inactive); GI50 [16]: > 100 µM (inactive); GI50 [54]: > 100 µM (inactive); GI50 [17]: > 100 µM (inactive); GI50 [18]: > 100 µM (inactive); GI50 [19]: > 100 µM (inactive); GI50 [20]: > 100 µM (inactive); GI50 [21]: > 100 µM (inactive); GI50 [22]: > 100 µM (inactive); GI50 [23]: > 100 µM (inactive); GI50 [24]: > 100 µM (inactive); GI50 [25]: > 100 µM (inactive); GI50 [26]: > 100 µM (inactive); GI50 [27]: > 100 µM (inactive); GI50 [28]: 24.1 µM (inactive); GI50 [55]: > 100 µM (inactive); GI50 [29]: > 100 µM (inactive); GI50 [30]: > 100 µM (inactive); GI50 [31]: > 100 µM (inactive); GI50 [32]: > 100 µM (inactive); GI50 [33]: > 100 µM (inactive); GI50 [34]: > 100 µM (inactive); GI50 [35]: > 100 µM (inactive); GI50 [36]: > 100 µM (inactive); GI50 [37]: > 100 µM (inactive); GI50 [38]: > 100 µM (inactive); GI50 [56]: > 100 µM (inactive); GI50 [57]: > 100 µM (inactive); GI50 [39]: > 100 µM (inactive); GI50 [40]: > 100 µM (inactive); GI50 [58]: > 100 µM (inactive); GI50 [41]: 42.6 µM (inactive); GI50 [42]: > 100 µM (inactive); GI50 [44]: > 100 µM (inactive); GI50 [45]: > 100 µM (inactive); GI50 [46]: > 100 µM (inactive); GI50 [47]: > 100 µM; GI50 [48]: > 100 µM (inactive); GI50 [49]: > 100 µM (inactive); GI50 [50]: > 100 µM (inactive); GI50 [51]: > 100 µM (inactive)

Q: What does the source list for `CCOC(=O)C(CC(C)C)NC(=O)C(N)Cc1ccc(N(CCCl)CCCl)cc1` (stereo unspecified)?
A: GI50 [52]: 1.69 µM (inactive); GI50 [2]: 11.8 µM (inactive); GI50 [3]: 12.9 µM (inactive); GI50 [4]: 0.632 µM (active); GI50 [5]: 1.35 µM (inactive); GI50 [6]: 0.0637 µM (active); GI50 [7]: 6.62 µM (inactive); GI50 [59]: 10.9 µM (inactive); GI50 [8]: 6.95 µM (inactive); GI50 [9]: 3.65 µM (inactive); GI50 [10]: 4.24 µM (inactive); GI50 [60]: 15.7 µM (inactive); GI50 [11]: 0.104 µM (active); GI50 [53]: 9.71 µM (inactive); GI50 [12]: 4.83 µM (inactive); GI50 [13]: 4.39 µM (inactive); GI50 [14]: 4.22 µM (inactive); GI50 [15]: 2.13 µM (inactive); GI50 [16]: 5.6 µM (inactive); GI50 [54]: 3.12 µM (inactive); GI50 [17]: 3.79 µM (inactive); GI50 [18]: 13.9 µM (inactive); GI50 [19]: 3.11 µM (inactive); GI50 [20]: 3.56 µM (inactive); GI50 [21]: 7.35 µM (inactive); GI50 [22]: 1.95 µM (inactive); GI50 [23]: 9.71 µM (inactive); GI50 [24]: 17.9 µM (inactive); GI50 [61]: 2.35 µM (inactive); GI50 [25]: 2.57 µM (inactive); GI50 [26]: 5.62 µM (inactive); GI50 [27]: 1.57 µM (inactive); GI50 [28]: 1.58 µM (inactive); GI50 [55]: 2.8 µM (inactive); GI50 [29]: 2.17 µM (inactive); GI50 [62]: 12.6 µM (inactive); GI50 [30]: 1.65 µM (inactive); GI50 [31]: 2.52 µM (inactive); GI50 [32]: 0.333 µM (active); GI50 [34]: 0.134 µM (active); GI50 [35]: 3.94 µM (inactive); GI50 [36]: 4.81 µM (inactive); GI50 [37]: 10.3 µM (inactive); GI50 [63]: 15.8 µM (inactive); GI50 [38]: 13.7 µM (inactive); GI50 [56]: 1.52 µM (inactive); GI50 [57]: 1.6 µM (inactive); GI50 [39]: 5.61 µM (inactive); GI50 [40]: 1.69 µM (inactive); GI50 [58]: 2.83 µM (inactive); GI50 [41]: 3.33 µM (inactive); GI50 [42]: 2.01 µM (inactive); GI50 [64]: 0.0232 µM (active); GI50 [44]: 0.0478 µM (active); GI50 [65]: 4.9 µM (inactive); GI50 [45]: 4.86 µM (inactive); GI50 [66]: 16.9 µM (inactive); GI50 [67]: 18.6 µM (inactive); GI50 [46]: 12 µM (inactive); GI50 [47]: 2.38 µM; GI50 [48]: 1.75 µM (inactive); GI50 [49]: 4.91 µM (inactive); GI50 [50]: 3.18 µM (inactive); GI50 [51]: 2.66 µM (inactive)
